Experimental data taken from patent US20250108038A1 (priority 2023, published 2025).
Values joined by “and” are separate entries in the source; they are usually repeats but may differ in a detail not shown here. Equal values may be shown once.

Test system: Long Evans rats
Assay: Behavioral satiety sequence (BSS)
Format: in vivo, Long Evans rat
Conditions: Compound I-19 0.3 mg/kg
Excerpt: The Behavioural Satiety Sequence (BSS) is a technique used to evaluate physiological satiety. It is based on the expression of a sequence of behaviors including eating, grooming, locomotor activity, followed by resting, which are typically observed in rodents post-ingestion (Halford et al, 1998, Pharmacology Biochemistry and Behaviour. 61(2): 159-168). The BSS is a widely used model for determining the effects of novel pharmaceuticals on food intake and measures of satiety in rodents (Oliveira et al, 2011, Revista de Nutrição. 24(4) 619-628), and to discriminate the cause of reduced food intake following pharmacological manipulation. For example, treatments that may reduce food intake by non-specific mechanisms, such as immobility, malaise, and taste adulteration, will disrupt this sequence (Halford et al, 1998, Pharmacology Biochemistry and Behaviour. 61(2): 159-168).
Specifically, 12 male Long-Evans rats were food-deprived for 22 h with a 2 h feeding period each day. Rats were trained to consume daily food during the 2 h period over 25 days. The testing phase was initiated once the rats consistently consumed 16-18 g of food per day with ≤10% variance in amount of feed consumed. Feeding took place in designated individual boxes in a quiet room separate from the housing room. Continuous remote monitoring via video camera during feeding was used to assess the BSS. Food consumption was measured by weighing the total available food before and after the 2 h feeding window, correcting for spillage. Lorcaserin (1 mg/kg) was included as a reference control (Higgins et al, 2011, Neuropsychopharmacology. 37(5): 1177-1191). Subjects were tested using a repeated-measures, Latin square design with 2-3 days wash-out between treatment cycles.
On scheduled test days, animals were monitored remotely via video camera during the feeding access period. The occurrence of four mutually exclusive behaviors (eating/drinking, grooming, active, rest) were individually scored. Over the 2 h feeding period, behaviors were assessed every 30 seconds. Scores were compiled into 23 5 min timebins (timebin 24 was removed due to early removal of animals) and the frequency of each behavior within each timebin was calculated to determine a temporal frequency of each measure (Rodgers et al, 2010, Pharmacology Biochemistry and Behaviour. 97: 3-14). Percentage time was plotted for each behavioral sequence in each timebin to compare between treatment groups (Higgins et al, 2011, Neuropsychopharmacology. 37(5): 1177-1191).

[1] = AVG of animals LT-1 to LT-12, 0-0.5 hours
[2] = raw data per animal LT-1 to LT-12, 0-0.5 hours
[3] = raw score per animal (LT-1 to LT-12)

Clc1ccc(C2(OCC3OCCO3)c3ccccc3C3=NCCN32)cc1 (stereo not drawn) [Compound I-19]
BSS scoring G (grooming), Time Bin 19 (90-95 TOTAL), AVG (AVG of animals LT-1 to LT-12): 0.05
BSS scoring G (grooming), Time Bin 20 (95-100 TOTAL), AVG (AVG of animals LT-1 to LT-12): 0.05
BSS scoring G (grooming), Time Bin 21 (100-105 TOTAL), AVG (AVG of animals LT-1 to LT-12): 0.02
BSS scoring G (grooming), Time Bin 22 (105-110 TOTAL), AVG (AVG of animals LT-1 to LT-12): 0.01
BSS scoring G (grooming), Time Bin 23 (110-115 TOTAL), AVG (AVG of animals LT-1 to LT-12): 0.05
BSS scoring G (grooming), Time Bin 24 (115-120 TOTAL), AVG (AVG of animals LT-1 to LT-12): 0.04
BSS scoring R (resting), Time Bin 19 (90-95 TOTAL), AVG (AVG of animals LT-1 to LT-12): 0.11
BSS scoring R (resting), Time Bin 20 (95-100 TOTAL), AVG (AVG of animals LT-1 to LT-12): 0.09
BSS scoring R (resting), Time Bin 21 (100-105 TOTAL), AVG (AVG of animals LT-1 to LT-12): 0.19
BSS scoring R (resting), Time Bin 22 (105-110 TOTAL), AVG (AVG of animals LT-1 to LT-12): 0.21
BSS scoring R (resting), Time Bin 23 (110-115 TOTAL), AVG (AVG of animals LT-1 to LT-12): 0.16
BSS scoring R (resting), Time Bin 24 (115-120 TOTAL), AVG (AVG of animals LT-1 to LT-12): 0.21
BSS scoring A (active), Time Bin 1 (0-5 TOTAL), AVG [1]: 0.09
BSS scoring A (active), Time Bin 2 (5-10 TOTAL), AVG [1]: 0.02
BSS scoring A (active), Time Bin 3 (10-15 TOTAL), AVG [1]: 0.03
BSS scoring A (active), Time Bin 4 (15-20 TOTAL), AVG [1]: 0.08
BSS scoring A (active), Time Bin 5 (20-25 TOTAL), AVG [1]: 0.07
BSS scoring A (active), Time Bin 6 (25-30 TOTAL), AVG [1]: 0.08
BSS scoring E (eating/drinking), Time Bin 1 (0-5 TOTAL), AVG [1]: 0.88
BSS scoring E (eating/drinking), Time Bin 2 (5-10 TOTAL), AVG [1]: 0.95
BSS scoring E (eating/drinking), Time Bin 3 (10-15 TOTAL), AVG [1]: 0.94
BSS scoring E (eating/drinking), Time Bin 4 (15-20 TOTAL), AVG [1]: 0.90
BSS scoring E (eating/drinking), Time Bin 5 (20-25 TOTAL), AVG [1]: 0.88
BSS scoring E (eating/drinking), Time Bin 6 (25-30 TOTAL), AVG [1]: 0.88
BSS scoring G (grooming), Time Bin 1 (0-5 TOTAL), AVG [1]: 0.03
BSS scoring G (grooming), Time Bin 2 (5-10 TOTAL), AVG [1]: 0.03
BSS scoring G (grooming), Time Bin 3 (10-15 TOTAL), AVG [1]: 0.03
BSS scoring G (grooming), Time Bin 4 (15-20 TOTAL), AVG [1]: 0.01
BSS scoring G (grooming), Time Bin 5 (20-25 TOTAL), AVG [1]: 0.03
BSS scoring G (grooming), Time Bin 6 (25-30 TOTAL), AVG [1]: 0.02
BSS scoring R (resting), Time Bin 1 (0-5 TOTAL), AVG [1]: 0.01
BSS scoring R (resting), Time Bin 2 (5-10 TOTAL), AVG [1]: 0.00
BSS scoring R (resting), Time Bin 3 (10-15 TOTAL), AVG [1]: 0.00
BSS scoring R (resting), Time Bin 4 (15-20 TOTAL), AVG [1]: 0.02
BSS scoring R (resting), Time Bin 5 (20-25 TOTAL), AVG [1]: 0.03
BSS scoring R (resting), Time Bin 6 (25-30 TOTAL), AVG [1]: 0.03
BSS scoring A (active), Time Bin 1 (0-5 TOTAL) [2]: 1 (5×) and 0 (4×) and 2 (3×)
BSS scoring A (active), Time Bin 2 (5-10 TOTAL) [2]: 0 (10×) and 1 (2×)
BSS scoring A (active), Time Bin 3 (10-15 TOTAL) [2]: 0 (9×) and 2 and 1 (2×)
BSS scoring A (active), Time Bin 4 (15-20 TOTAL) [2]: 0 (7×) and 1 (3×) and 2 and 4
BSS scoring A (active), Time Bin 5 (20-25 TOTAL) [2]: 3 and 0 (7×) and 1 (3×) and 2
BSS scoring A (active), Time Bin 6 (25-30 TOTAL) [2]: 1 (3×) and 0 (6×) and 2 (3×)
BSS scoring E (eating/drinking), Time Bin 1 (0-5 TOTAL) [2]: 9 (6×) and 7 and 8 (3×) and 10 (2×)
BSS scoring E (eating/drinking), Time Bin 2 (5-10 TOTAL) [2]: 9 (6×) and 10 (6×)
BSS scoring E (eating/drinking), Time Bin 3 (10-15 TOTAL) [2]: 10 (6×) and 9 (5×) and 8
BSS scoring E (eating/drinking), Time Bin 4 (15-20 TOTAL) [2]: 10 (4×) and 9 (6×) and 8 and 6
BSS scoring E (eating/drinking), Time Bin 5 (20-25 TOTAL) [2]: 6 and 9 (6×) and 10 (3×) and 8 and 7
BSS scoring E (eating/drinking), Time Bin 6 (25-30 TOTAL) [2]: 9 (2×) and 10 (5×) and 7 and 8 (3×) and 6
BSS scoring G (grooming), Time Bin 1 (0-5 TOTAL) [2]: 0 (9×) and 1 (3×)
BSS scoring G (grooming), Time Bin 2 (5-10 TOTAL) [2]: 1 (4×) and 0 (8×)
BSS scoring G (grooming), Time Bin 3 (10-15 TOTAL) [2]: 0 (9×) and 1 (3×)
BSS scoring G (grooming), Time Bin 4 (15-20 TOTAL) [2]: 0 (11×) and 1
BSS scoring G (grooming), Time Bin 5 (20-25 TOTAL) [2]: 1 (4×) and 0 (8×)
BSS scoring G (grooming), Time Bin 6 (25-30 TOTAL) [2]: 0 (10×) and 1 (2×)
BSS scoring R (resting), Time Bin 1 (0-5 TOTAL) [2]: 0 (11×) and 1
BSS scoring R (resting), Time Bin 2 (5-10 TOTAL) [2]: 0
BSS scoring R (resting), Time Bin 3 (10-15 TOTAL) [2]: 0
BSS scoring R (resting), Time Bin 4 (15-20 TOTAL) [2]: 0 (10×) and 1 (2×)
BSS scoring R (resting), Time Bin 5 (20-25 TOTAL) [2]: 0 (10×) and 1 and 2
BSS scoring R (resting), Time Bin 6 (25-30 TOTAL) [2]: 0 (10×) and 3 and 1
BSS scoring A (active), Time Bin 19 (90-95 TOTAL) [3]: 0 (4×) and 5 (2×) and 2 (2×) and 6 and 3 and 1 (2×)
BSS scoring A (active), Time Bin 20 (95-100 TOTAL) [3]: 3 (2×) and 2 (2×) and 0 (4×) and 1 (2×) and 4 (2×)
BSS scoring A (active), Time Bin 21 (100-105 TOTAL) [3]: 0 (7×) and 1 (3×) and 2 (2×)
BSS scoring A (active), Time Bin 22 (105-110 TOTAL) [3]: 0 (8×) and 4 and 1 and 2 (2×)
BSS scoring A (active), Time Bin 23 (110-115 TOTAL) [3]: 4 (2×) and 3 and 1 and 0 (4×) and 6 (2×) and 2 and 7
BSS scoring A (active), Time Bin 24 (115-120 TOTAL) [3]: 0 (6×) and 3 (2×) and 5 and 1 (2×) and 4
BSS scoring E (eating/drinking), Time Bin 19 (90-95 TOTAL) [3]: 9 (5×) and 4 (2×) and 0 and 2 and 7 and 8 and 5
BSS scoring E (eating/drinking), Time Bin 20 (95-100 TOTAL) [3]: 7 and 6 (2×) and 10 (3×) and 9 and 8 (2×) and 1 and 4 (2×)
BSS scoring E (eating/drinking), Time Bin 21 (100-105 TOTAL) [3]: 10 (4×) and 9 (2×) and 6 and 7 and 0 and 8 and 5 and 4
BSS scoring E (eating/drinking), Time Bin 22 (105-110 TOTAL) [3]: 10 (6×) and 0 (2×) and 3 and 7 and 8 and 5
BSS scoring E (eating/drinking), Time Bin 23 (110-115 TOTAL) [3]: 5 (2×) and 6 and 9 (2×) and 1 (2×) and 4 (2×) and 0 and 8 and 10
BSS scoring E (eating/drinking), Time Bin 24 (115-120 TOTAL) [3]: 0 (3×) and 6 (2×) and 10 and 4 (2×) and 2 and 8 (2×) and 5
BSS scoring G (grooming), Time Bin 19 (90-95 TOTAL) [3]: 0 (8×) and 1 (3×) and 3
BSS scoring G (grooming), Time Bin 20 (95-100 TOTAL) [3]: 0 (8×) and 1 (2×) and 2 (2×)
BSS scoring G (grooming), Time Bin 21 (100-105 TOTAL) [3]: 0 (10×) and 1 (2×)
